This is an account of results in patent US11261186B2, “Biaryl derivative as GPR120 agonist” (LG CHEM, LTD., priority 2014, dated 2022).

Structures are written as SMILES.

This assay addresses T1, hGPR120 (Homo sapiens, UniProt Q5NUL3).
T1 construct: expressed in transfected cells; host or cells: CHO-K1
T1 sequence (Q5NUL3 1-361): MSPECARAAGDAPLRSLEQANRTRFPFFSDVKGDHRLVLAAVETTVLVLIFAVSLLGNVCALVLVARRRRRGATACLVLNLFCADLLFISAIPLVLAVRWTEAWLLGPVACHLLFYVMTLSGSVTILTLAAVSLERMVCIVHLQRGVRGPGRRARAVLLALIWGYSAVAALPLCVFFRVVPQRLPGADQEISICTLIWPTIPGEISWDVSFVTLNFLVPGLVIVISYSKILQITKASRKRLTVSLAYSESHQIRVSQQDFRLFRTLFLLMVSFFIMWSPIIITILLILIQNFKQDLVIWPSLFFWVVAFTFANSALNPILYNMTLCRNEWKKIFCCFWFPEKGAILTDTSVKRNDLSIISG
Kind of assay: Measurement of Activity of GPR120 Agonist (Cell-Based Assay), Calcium 5 dye fluorescence. Particulars: CHO-K1 cells expressing Ga16 and hGPR120. The protocol: CHO-K1 cells expressing Ga16 and hGPR120 were dispensed into each well of a 96-well plate (3×10^4 cells/100 μl/well) and then incubated in 5% CO2, 37° C. incubator for 18 hours. Each well was treated with 100 μl of Calcium 5 dye (Molecular Devices) solution including 2% DMSO and then incubated in 5% CO2, 37° C. incubator for 1 hour. Serially diluted GPR120 agonists were prepared to a final concentration of 0.5% DMSO in a 96-well plate. Each well was treated with 50 μl of the agonist compounds using Plexstation II, and then fluorescence was measured at Ex 485 nm and Em 525 nm.
Fluorescence increased by the serially diluted GPR120 agonists is calculated as a relative percent (%) value based on the fluorescence represented by the treatment of 1% DMSO only. […] The calculation of measurement was carried out by using statistical software (Prizm).
Activity is denoted based on the following criteria: […]
Regarding `CC(C)Sc1ncccc1-c1cc(F)c(C(C)CCCC(=O)O)c(F)c1` (stereo not shown) [Example 50, 5-[2,6-difluoro-4-(2-isopropylsulfanyl-3-pyridyl)-phenyl]hexanoic acid], the EC50 is less than 200 nM.

For `CC(CCCC(=O)O)c1c(F)cc(-c2cccnc2OC2CCCC2)cc1F` (stereo not shown) [Example 51, 5-[4-(2-cyclopentoxy-3-pyridyl)-2,6-difluoro-phenyl]hexanoic acid], the EC50 is less than 200 nM.

With `CC(CCCC(=O)O)c1c(F)cc(-c2cccc(NC3CCCC3)c2)cc1F` (stereo not shown) [Example 52, 5-(3′-cyclopentylamino-3,5-difluoro-biphenyl-4-yl)-hexanoic acid], the EC50 is less than 200 nM.

Take `CC(C)Sc1cccc(-c2cc(F)c(C(C)CCCC(=O)O)c(F)c2)n1` (stereo not shown) [Example 53, 5-[2,6-difluoro-4-(6-isopropylsulfanyl-2-pyridyl)-phenyl]hexanoic acid]: the 50% effective concentration (EC50) was less than 200 nM.

`CC(CCCC(=O)O)c1c(F)cc(-c2cccc(SC3CCCC3)n2)cc1F` (stereo not shown) [Example 54, 5-[4-(6-cyclopentylsulfanyl-2-pyridyl)-2,6-difluoro-phenyl]hexanoic acid]: the concentration for a half-maximal effect (EC50) was less than 200 nM.

As for `CCCSc1cccc(-c2cc(F)c(C(C)CCCC(=O)O)c(F)c2)n1` (stereo not shown) [Example 55, 5-[2,6-difluoro-4-(6-propylsulfanyl-2-pyridyl)phenyl]hexanoic acid], the EC50 was less than 200 nM.

On to `CC(CCCC(=O)O)c1c(F)cc(-c2cccc(OC3CCCC3)n2)cc1F` (stereo not shown) [Example 56, 5-[4-(6-cyclopentoxy-2-pyridyl)-2,6-difluoro-phenyl]hexanoic acid], for which the EC50 was less than 200 nM.

As for `CC(CCCC(=O)O)c1c(F)cc(-c2cccnc2OC2CCC2)cc1F` (stereo not shown) [Example 59, 5-[4-(2-cyclobutoxy-3-pyridyl)-2,6-difluoro-phenyl]hexanoic acid], the EC50 is less than 200 nM.

Consider `CC(CCCC(=O)O)c1c(F)cc(-c2cccnc2OCC2CC2)cc1F` (stereo not shown) [Example 60, 5-[4-(2-cyclopropylmethoxy-3-pyridyl)-2,6-difluoro-phenyl]hexanoic acid], for which the EC50 is less than 200 nM.

Regarding `Oc1cc(COc2c(F)cc(-c3cccnc3SC3CCC3)cc2F)on1` [Example 61, 5-[[4-(2-cyclobutylsulfanyl-3-pyridyl)-2,6-difluoro-phenoxy]methyl]isoxazol-3-ol], the EC50 is less than 200 nM.

As to `CCCSc1ncccc1-c1ccc(CCCc2noc(=O)[nH]2)cc1` [Example 63, 3-[3-[4-(2-propylsulfanyl-3-pyridyl)phenyl]propyl]-4H-1,2,4-oxadiazol-5-one], the EC50 was 2000 to 20000 nM.

With `CCCSc1ncccc1-c1ccc(CCCc2noc(=S)[nH]2)cc1` [Example 64, 3-[3-[4-(2-propylsulfanyl-3-pyridyl)phenyl]propyl]-4H-1,2,4-oxadiazol-5-thione], the EC50 is 2000 to 20000 nM.

Take `Oc1cc(COc2c(F)cc(-c3cccnc3SC3CCCC3)cc2F)on1` [Example 65, 5-[[4-(2-cyclopentylsulfanyl-3-pyridyl)-2,6-difluoro-phenoxy]methyl]isoxazol-3-ol]: the EC50 was less than 200 nM.

`CCCSc1ncccc1-c1cc(F)c(OCc2cc(O)no2)c(F)c1` [Example 66, 5-[[2,6-difluoro-4-(2-propylsulfanyl-3-pyridyl)phenoxy]methyl]isoxazol-3-ol]: the EC50 is less than 200 nM.

On to `Oc1cc(COc2c(F)cc(-c3cccnc3OC3CCCC3)cc2F)on1` [Example 67, 5-[[4-[2-(cyclopentoxy)-3-pyridyl]-2,6-difluoro-phenoxy]methyl]isoxazol-3-ol], for which the EC50 was less than 200 nM.

`CC(C)Sc1ncccc1-c1cc(F)c(OCc2cc(O)no2)c(F)c1` [Example 68, 5-[[2,6-difluoro-4-(2-isopropylsulfanyl-3-pyridyl)phenoxy]methyl]isoxazol-3-ol]: the EC50 was less than 200 nM.

Take `CC(C)Oc1ncccc1-c1cc(F)c(OCc2cc(O)no2)c(F)c1` [Example 69, 5-[[2,6-difluoro-4-(2-isopropoxy-3-pyridyl)phenoxy]methyl]isoxazol-3-ol]: the EC50 is less than 200 nM.

Regarding `CC(C)Sc1cccc(-c2cc(F)c(OCc3cc(O)no3)c(F)c2)n1` [Example 70, 5-[[2,6-difluoro-4-(6-isopropylsulfanyl-2-pyridyl)phenoxy]methyl]isoxazol-3-ol], the EC50 was less than 200 nM.

In the case of `CC(C)Oc1cccc(-c2cc(F)c(OCc3cc(O)no3)c(F)c2)n1` [Example 71, 5-[[2,6-difluoro-4-(6-isopropoxy-2-pyridyl)phenoxy]methyl]isoxazol-3-ol], the EC50 is less than 200 nM.

On to `Oc1cc(COc2c(F)cc(-c3cccc(OCC4CC4)n3)cc2F)on1` [Example 72, 5-[[4-[6-(cyclopropylmethoxy)-2-pyridyl]-2,6-difluoro-phenoxy]methyl]isoxazol-3-ol], for which the EC50 was less than 200 nM.

Consider `CCCOc1cccc(-c2cc(F)c(OCc3cc(O)no3)c(F)c2)n1` [Example 73, 5-[[2,6-difluoro-4-(6-propoxy-2-pyridyl)phenoxy]methyl]isoxazol-3-ol], for which the EC50 was less than 200 nM.

Turning to `CCCOc1ncccc1-c1cc(F)c(OCc2cc(O)no2)c(F)c1` [Example 74, 5-[[2,6-difluoro-4-(2-propoxy-3-pyridyl)phenoxy]methyl]isoxazol-3-ol], the concentration for a half-maximal effect (EC50) was less than 200 nM.

With `Oc1cc(COc2c(F)cc(-c3cccnc3OC3CCC3)cc2F)on1` [Example 76, 5-[[4-[2-(cyclobutoxy)-3-pyridyl]-2,6-difluoro-phenoxy]methyl]isoxazol-3-ol], the EC50 is less than 200 nM.

Regarding `Oc1cc(COc2c(F)cc(-c3cccnc3OCC3CCC3)cc2F)on1` [Example 77, 5-[[4-[2-(cyclobutylmethoxy)-3-pyridyl]-2,6-difluoro-phenoxy]methyl]isoxazol-3-ol], the EC50 is less than 200 nM.

`Oc1ccc(COc2c(F)cc(-c3cccnc3OC3CCCC3)cc2F)cn1` [Example 79, 5-[[4-[2-(cyclopentoxy)-3-pyridyl]-2,6-difluoro-phenoxy]methyl]pyridin-2-ol]: the EC50 lay within 2000 to 20000 nM.

Take `Oc1cc(CSc2ccc(-c3cccnc3OC3CCCC3)cc2)on1` [Example 81, 5-[[4-[2-(cyclopentoxy)-3-pyridyl]phenyl]sulfanylmethyl]isoxazol-3-ol]: the EC50 is less than 200 nM.

As for `Oc1cc(CSc2c(F)cc(-c3cccnc3OC3CCCC3)cc2F)on1` [Example 83, 5-[[4-[2-(cyclopentoxy)-3-pyridyl]-2,6-difluoro-phenyl]sulfanylmethyl]isoxazol-3-ol], the EC50 is less than 200 nM.

With `Oc1cc(CNc2c(F)cc(-c3cccnc3OC3CCCC3)cc2F)on1` [Example 84, 5-[[4-[2-(cyclopentoxy)-3-pyridyl]-2,6-difluoro-anilino]methyl]isoxazol-3-ol], the EC50 was less than 200 nM.

Turning to `CN(Cc1cc(O)no1)c1ccc(-c2cccnc2OC2CCCC2)cc1` [Example 86, 5-[[4-[2-(cyclopentoxy)-3-pyridyl]-N-methyl-anilino]methyl]isoxazol-3-ol], the EC50 was less than 200 nM.

On to `Oc1cc(CCc2c(F)cc(-c3cccnc3OC3CCCC3)cc2F)on1` [Example 87, 5-[2-[4-[2-(cyclopentoxy)-3-pyridyl]-2,6-difluoro-phenyl]ethyl]isoxazol-3-ol], for which the EC50 is less than 200 nM.

Turning to `CC(Cc1cc(O)no1)c1c(F)cc(-c2cccnc2OC2CCCC2)cc1F` (stereo not shown) [Example 88, 5-[2-[4-[2-(cyclopentoxy)-3-pyridyl]-2,6-difluoro-phenyl]propyl]isoxazol-3-ol], the EC50 is less than 200 nM.
